In patent US8563589B2, “Methods of treating neuropathic pain with benzimidazole derivative agonists of PPARgamma” (priority 2009, dated 2013):

What was measured:
[1] = tested on: Bennett neuropathic pain model; assay: Bennett (chronic constriction injury) neuropathic pain model, cold plate / cold allodynia test; type: in vivo, rat; settings: for latency time to removal of the affected paw from a cold plate, difference from vehicle control: dosed orally at 100 mg/kg, measured one hour later, cold allodynia test, ANOVA p<0.05 (FIG. 1)
Method: FIG. 1—Efficacy of PPARγ agonists Muraglitizar and Tesaglitizar in Bennett animal model for neuropathic pain. PPAR agonist compounds and positive control carbamazepine were dosed orally at 100 mg/kg, and pain behavior was measured one hour later with the cold allodynia test, as the latency time to removal of the affected paw from a cold plate. Statistical analysis of raw data was performed by analysis of variance (ANOVA), with significance threshold set at p<0.05. Analgesic activity was determined as a statistically significant increase in latency time to paw withdrawal in treated animals as compared to vehicle-treated animals. Comparisons for statistically significant differences in latency times were made between PPAR agonist compound-treated animals and vehicle controls, between carbamazepine-treated animals and vehicle controls, and between PPAR agonist compound-treated animals and carbamazepine-treated animals from the same experiment. All statistically significant differences between compared groups are indicated by the brackets, with *=p<0.05, and **=p<0.001.
FIG. 3—Effect of carbamazepine (+ control) and 3-(2,4-dichlorobenzyl)-2-methyl-N-(pentylsulfonyl)-3H-benzimidazole-5-carboxamide (“Atx” in Figure) on the latency to lift paw from the cold plate 60 min following compound injection, in rats with the Bennett model of neuropathic pain. Data represent mean±SEM. Statistical analysis of data as for FIG. 1; *=p<0.05.
These models are based on three surgical procedures: (i) the spinal nerve ligation (SNL) [Kim, S, and J. Chung, An experimental model for peripheral neuropathy produced by segmental spinal nerve ligation in the rat. Pain, 1992. 50: p. 355-363]; (ii) the partial sciatic nerve lesion (Seltzer) [Seltzer, Z., R. Dubner, and Y. Shir, A novel behavioral model of neuropathic pain disorders produced in rats by partial sciatic nerve injury. Pain, 1990. 43: p. 205-218]; (iii) and the chronic constriction injury [Bennett, G. and Y. Xie, A peripheral mononeuropathy in rat that produces disorders of pain sensation like those seen in man. Pain, 1988. 33: p. 87-107]. The Bennett model was used, as described below.
Young adult, male Sprague Dawley rats (200-250 g) from Harlan were used. Upon receipt, animals were assigned unique identification numbers (tail marked) and housed 2-3 per cage in suspended polycarbonate rat cages with filter paper covering mesh shelf. Rats were acclimated for up to 7 days prior to surgery. […]
The apparatus consists of a cold plate (Ugo Basile Hot/Cold Plate) measuring 25 (w)×37 (d)×16 (h) cm with a 10 cm thick aluminum circular plate. […] Baseline responses were measured on the day prior to drug administration. Each animal was tested by placing it on the cold plate (set to 4 C) and the latency of paw withdrawal was recorded. […]

type 2 diabetes = settings: Phase II; quoted from Meinke et al., Annual Reports in Medicinal Chemistry (2006); cited from earlier work
neurogenic pain model = settings: reported in WO2006085686; cited from earlier work

CCO[C@@H](Cc1ccc(OCCc2ccc(OS(C)(=O)=O)cc2)cc1)C(=O)O [Tesaglitazar]
latency time to removal of the affected paw from a cold plate, difference from vehicle control [1]: neither of Muraglitazar or Tesaglitazar showed any statistically significant difference from a vehicle control

CCCCCS(=O)(=O)NC(=O)c1ccc2nc(C)n(Cc3ccc(Cl)cc3Cl)c2c1 [Atx, 3-(2,4-dichlorobenzyl)-2-methyl-N-(pentylsulfonyl)-3H-benzimidazole-5-carboxamide]
latency to lift paw from the cold plate, analgesic activity compared to carbamazepine (+ control) ([1]; 60 min following compound injection, rats with the Bennett model (FIG. 3)): not significantly different from carbamazepine | latency to lift paw from the cold plate, analgesic activity compared to vehicle ([1]; 60 min following compound injection, rats with the Bennett model, p<0.05 (FIG. 3)): analgesic activity which is significantly greater than vehicle alone | advantage for type 2 diabetes in clinical trials (type 2 diabetes): no advantage [for type 2 diabetes] was demonstrated in clinical trials

COc1ccc(OC(=O)N(CC(=O)O)Cc2ccc(OCCc3nc(-c4ccccc4)oc3C)cc2)cc1 [Muraglitazar]
latency time to removal of the affected paw from a cold plate, difference from vehicle control [1]: neither of Muraglitazar or Tesaglitazar showed any statistically significant difference from a vehicle control

O=C(Nc1ccccc1)c1cc([N+](=O)[O-])ccc1Cl [GW9662, 2-chloro-5-nitro-N-phenylbenzamide]
activity in a neurogenic pain model (neurogenic pain model): demonstrates activity in a neurogenic pain model
